Measured values from ChEMBL document CHEMBL4177612, “Discovery of tranylcypromine analogs with an acylhydrazone substituent as LSD1 inactivators: Design, synthesis and their biological evaluation” (Bioorg Med Chem Lett, 2017).
Activity calls are given as the source filed them. The calls are words filed in the database; no cut-off is given here.

Columns and labels:
Assay type in all cases: functional, cell-based
MGC-803 [1] = assay: Effect on LSD1 level in human MGC803 cells at 1 to 4 uM after 4 days by immunofluorescence analysis
MGC-803 [2] = assay: Antiinvasive activity against human MGC803 cells at 0.25 to 1 uM after 24 hrs by DAPI staining based matrigel coated transwell assay
MGC-803 [3] = assay: Anti-migratory activity against human MGC803 cells after 24 hrs by DAPI staining based transwell assay

`CCN(CC)c1ccc(/C=N/NC(=O)CN[C@@H]2C[C@H]2c2ccc(F)c(F)c2)c(O)c1` was tested, and the Activity (MGC-803 [1]) was “inactive”, the Activity (MGC-803 [2]) was “Active” and the Activity (MGC-803 [3]) was “Dose-dependent effect”.
